Measurements: patent publication US10947188B2, “Small molecule ferroptosis inducers” (THE TRUSTEES OF COLUMBIA UNIVERSITY IN THE CITY OF NEW YORK, priority 2016, dated 2021)

Legend:
HT-1080 = experiment: Modulatory profiling: Alamar Blue viability, lethal compound cotreated with death modulator (EC50, AUC); assay type: cell-based; set-up: AUC, modulator HT.3MA / AUC, modulator HT.ALLN / AUC HT.ATA / AUC HT.ActD / AUC HT.BHA / AUC HT.BHT / AUC HT.BocD / AUC HT.CHX / AUC HT.Co2+ / AUC HT.DPQ / AUC HT.EGTA / AUC HT.Lmim / AUC HT.NAD+ / AUC HT.Nec-1 / AUC HT.SP600125 / AUC HT.TLCK / AUC HT.U0126: unit not given beside the values; details: for AUC HT.ATA: HT-1080, modulator ATA; for AUC HT.ActD: HT-1080, modulator ActD; for AUC HT.BHA: HT-1080, modulator BHA; for AUC HT.BHT: HT-1080, modulator BHT; for AUC HT.BocD: HT-1080, modulator BocD; for AUC HT.CHX: HT-1080, modulator CHX; for AUC HT.Co2+: HT-1080, modulator Co2+; for AUC HT.CspA: HT-1080, modulator CspA; for AUC HT.DPQ: HT-1080, modulator DPQ; for AUC HT.EGTA: HT-1080, modulator EGTA; for AUC HT.Gd3+: HT-1080, modulator Gd3+; for AUC HT.LNAME: HT-1080, modulator LNAME; for AUC HT.Lmim: HT-1080, modulator Lmim; for AUC HT.NAD+: HT-1080, modulator NAD+; for AUC HT.NMMA: HT-1080, modulator NMMA; for HT.atoc (AUC) / HT.bCarotene (AUC) / HT.deferox (AUC) / HT.digoxin (AUC) / HT.trolox (AUC) / HT.zVAD (AUC): HT-1080; for HT.atoc (AUC): modulator atoc; for HT.bCarotene (AUC): modulator bCarotene; for HT.deferox (AUC): modulator deferox; for HT.digoxin (AUC): modulator digoxin; for HT.trolox (AUC): modulator trolox; for HT.zVAD (AUC): modulator zVAD; on AUC HT.BHA: reference of the scale not given here; on AUC HT.EGTA: reference of the scale not given here
BJeLR = experiment: as above; assay type: cell-based, human; set-up: AUC, modulator BJ.Gd3+ / AUC, modulator BJ.LNAME / AUC, modulator BJ.Lmin / AUC, modulator BJ.3MA / AUC, modulator BJ.ALLN / AUC, modulator BJ.Boc D / AUC, modulator BJ.CHX / AUC, modulator BJ.Co2+ / AUC, modulator BJ.Nec-1 / AUC, modulator BJ.Pepstatin / AUC, modulator BJ.TLCK / AUC, modulator BJ.atoc / AUC, modulator BJ.trolox / AUC, modulator BJ.zVAD: unit not given beside the values; details: BJeLR cells, modulatory profile value (AUC); for AUC, modulator BJ.3MA: lethal compound cotreated with modulator 3MA; for AUC, modulator BJ.ALLN: lethal compound cotreated with modulator ALLN; for AUC, modulator BJ.Boc D: lethal compound cotreated with modulator Boc D; for AUC, modulator BJ.CHX: lethal compound cotreated with modulator CHX; for AUC, modulator BJ.Co2+: lethal compound cotreated with modulator Co2+; for AUC, modulator BJ.DPQ: lethal compound cotreated with modulator DPQ; for AUC, modulator BJ.Gd3+: lethal compound cotreated with modulator Gd3+; for AUC, modulator BJ.LNAME: lethal compound cotreated with modulator LNAME; for AUC, modulator BJ.Lmin/NAD+: lethal compound cotreated with modulator Lmin/NAD+; for AUC, modulator BJ.Lmin: lethal compound cotreated with modulator Lmin; for AUC, modulator BJ.NAD+: lethal compound cotreated with modulator NAD+; for AUC, modulator BJ.NMMA: lethal compound cotreated with modulator NMMA; for AUC, modulator BJ.Nec-1: lethal compound cotreated with modulator Nec-1; for AUC, modulator BJ.Pepstatin: lethal compound cotreated with modulator Pepstatin; for AUC, modulator BJ.TLCK: lethal compound cotreated with modulator TLCK; on AUC, modulator BJ.3MA: reference of the scale not given here; on AUC, modulator BJ.ALLN: reference of the scale not given here; on AUC, modulator BJ.Boc D: reference of the scale not given here; on AUC, modulator BJ.CHX: reference of the scale not given here; on AUC, modulator BJ.Co2+: reference of the scale not given here; on AUC, modulator BJ.DPQ: reference of the scale not given here; on AUC, modulator BJ.Gd3+: reference of the scale not given here; on AUC, modulator BJ.LNAME: reference of the scale not given here; on AUC, modulator BJ.NAD+: reference of the scale not given here; on AUC, modulator BJ.NMMA: reference of the scale not given here; on AUC, modulator BJ.Nec-1: reference of the scale not given here; on AUC, modulator BJ.Pepstatin: reference of the scale not given here; on AUC, modulator BJ.TLCK: reference of the scale not given here

SMILES | AUC HT.ATA (HT-1080) | AUC HT.ActD (HT-1080) | AUC HT.BHA (HT-1080) | AUC HT.BHT (HT-1080) | AUC HT.BocD (HT-1080) | AUC HT.CHX (HT-1080) | AUC HT.Co2+ (HT-1080) | AUC HT.CspA (HT-1080) | AUC HT.DPQ (HT-1080) | AUC HT.EGTA (HT-1080) | AUC HT.Gd3+ (HT-1080) | AUC HT.LNAME (HT-1080) | AUC HT.Lmim (HT-1080) | AUC HT.NAD+ (HT-1080) | AUC HT.NMMA (HT-1080) | HT.atoc (AUC) (HT-1080) | HT.bCarotene (AUC) (HT-1080) | HT.deferox (AUC) (HT-1080) | HT.digoxin (AUC) (HT-1080) | HT.trolox (AUC) (HT-1080) | other results
O=c1c(Cl)c(Cl)cnn1-c1ccc(Cl)cc1 [CIL63] | 0.07925 | −0.003254 | 0.01784 | −0.1088 | 0.01855 | 0.07744 | 0.02639 | 0.003063 | −0.02172 | 0.06222 | −0.03164 | 0.04201 | 0.03962 | 0.03316 | −0.002298 | 0.07269 | 0.0644 | 0.08989 | 0.02371 | 0.03222 | HT.zVAD (AUC) (HT-1080): 0.01846; AUC, modulator BJ.3MA (BJeLR): 0.04075; AUC, modulator BJ.ALLN (BJeLR): 0.0544; AUC, modulator BJ.Boc D (BJeLR): −0.01053; AUC, modulator BJ.CHX (BJeLR): 0.09508; AUC, modulator BJ.Co2+ (BJeLR): 0.02177; AUC, modulator BJ.DPQ (BJeLR): 0.0003046; AUC, modulator BJ.Gd3+ (BJeLR): 0.01459; AUC, modulator BJ.LNAME (BJeLR): −0.006812; AUC, modulator BJ.Lmin/NAD+ (BJeLR): 0.07776; AUC, modulator BJ.Lmin (BJeLR): 0.01215; AUC, modulator BJ.NAD+ (BJeLR): 0.02352; AUC, modulator BJ.NMMA (BJeLR): 0.002719; AUC, modulator BJ.Nec-1 (BJeLR): 0.02815; AUC, modulator BJ.Pepstatin (BJeLR): 0.02882; AUC, modulator BJ.TLCK (BJeLR): −0.0437
[O-][N+]1=c2ccc(Nc3ccccc3)cc2=NC12CCCCC2 [CIL66] | 0.02652 | −0.03277 | −0.02085 | −0.1542 | −0.05788 | 0.08144 | −0.06034 | −0.05469 | −0.01105 | 0.03093 | −0.01757 | 0.004035 | 0.01652 | −0.01106 | −0.01421 | 0.05045 | 0.03186 | 0.1299 | −0.05456 | −0.03334 | HT.zVAD (AUC) (HT-1080): 0.01629; AUC, modulator BJ.3MA (BJeLR): 0.04168; AUC, modulator BJ.ALLN (BJeLR): 0.08747; AUC, modulator BJ.Boc D (BJeLR): −0.03146; AUC, modulator BJ.CHX (BJeLR): 0.08369; AUC, modulator BJ.Co2+ (BJeLR): −0.03141; AUC, modulator BJ.DPQ (BJeLR): −0.007284; AUC, modulator BJ.Gd3+ (BJeLR): −0.003838; AUC, modulator BJ.LNAME (BJeLR): 0.02705; AUC, modulator BJ.Lmin/NAD+ (BJeLR): 0.06444; AUC, modulator BJ.Lmin (BJeLR): −0.05195; AUC, modulator BJ.NAD+ (BJeLR): −0.0264; AUC, modulator BJ.NMMA (BJeLR): −0.02558; AUC, modulator BJ.Nec-1 (BJeLR): 0.03694; AUC, modulator BJ.Pepstatin (BJeLR): 0.04469; AUC, modulator BJ.TLCK (BJeLR): −0.07935
O=S1(=O)Nc2c(ccc3cccnc23)-c2ccccc21 [CIL67] | 0.08909 | 0.06498 | −0.03558 | −0.1041 | −0.02378 | 0.1458 | 0.03257 | 0.01638 | −0.01092 | 0.1234 | −0.01945 | −0.007515 | 0.01912 | −0.01795 | −0.01349 | 0.05006 | 0.04657 | 0.1176 | −0.02175 | −0.05687 | HT.zVAD (AUC) (HT-1080): 0.004996; AUC, modulator BJ.3MA (BJeLR): 0.02312; AUC, modulator BJ.ALLN (BJeLR): 0.02149; AUC, modulator BJ.Boc D (BJeLR): 0.00578; AUC, modulator BJ.CHX (BJeLR): 0.3083; AUC, modulator BJ.Co2+ (BJeLR): 0.03708; AUC, modulator BJ.DPQ (BJeLR): −0.005089; AUC, modulator BJ.Gd3+ (BJeLR): 0.0143; AUC, modulator BJ.LNAME (BJeLR): 0.01177; AUC, modulator BJ.Lmin/NAD+ (BJeLR): 0.1599; AUC, modulator BJ.Lmin (BJeLR): −0.08787; AUC, modulator BJ.NAD+ (BJeLR): −0.07272; AUC, modulator BJ.NMMA (BJeLR): −0.01601; AUC, modulator BJ.Nec-1 (BJeLR): −0.02018; AUC, modulator BJ.Pepstatin (BJeLR): 0.08703; AUC, modulator BJ.TLCK (BJeLR): 0.06141
COC(=O)c1[nH]c2ccc(Br)cc2c1NC(=O)CN1CCN(C2CCCCC2)CC1 [CIL71] | 0.03481 | 0.0007018 | −0.05622 | −0.05839 | 0.01089 | 0.0761 | 0.02342 | −0.03233 | −0.003505 | −0.02298 | −0.01552 | 0.02366 | −0.002609 | 0.01546 | −0.0007859 | 0.03733 | −0.01281 | −0.003654 | −0.01046 | −0.01311 | HT.zVAD (AUC) (HT-1080): 0.01756; AUC, modulator BJ.3MA (BJeLR): 0.01151; AUC, modulator BJ.ALLN (BJeLR): −0.05589; AUC, modulator BJ.Boc D (BJeLR): 0.0152; AUC, modulator BJ.CHX (BJeLR): −0.06352; AUC, modulator BJ.Co2+ (BJeLR): 0.02676; AUC, modulator BJ.DPQ (BJeLR): 0.03052; AUC, modulator BJ.Gd3+ (BJeLR): 0.01394; AUC, modulator BJ.LNAME (BJeLR): 0.001204; AUC, modulator BJ.Lmin/NAD+ (BJeLR): 0.001502; AUC, modulator BJ.Lmin (BJeLR): −0.02138; AUC, modulator BJ.NAD+ (BJeLR): −0.03656; AUC, modulator BJ.NMMA (BJeLR): −0.000118; AUC, modulator BJ.Nec-1 (BJeLR): −0.02956; AUC, modulator BJ.Pepstatin (BJeLR): −0.01112; AUC, modulator BJ.TLCK (BJeLR): 0.01514
COc1ccc(C(=O)C(CN2CCCC2)c2ccccc2)cc1 (stereo not drawn) [CIL72] | 0.05533 | 0.02924 | −0.04013 | −0.1002 | −0.02415 | 0.1147 | 0.1163 | −0.01912 | −0.03157 | 0.009608 | −9.532E−05 | 0.01226 | −0.001821 | 0.004195 | −0.004443 | −0.02111 | −0.01233 | 0.1972 | −0.01413 | −0.03591 | HT.zVAD (AUC) (HT-1080): 0.05314; AUC, modulator BJ.3MA (BJeLR): 0.01714; AUC, modulator BJ.ALLN (BJeLR): 0.00459; AUC, modulator BJ.Boc D (BJeLR): 0.02672; AUC, modulator BJ.CHX (BJeLR): 0.2585; AUC, modulator BJ.Co2+ (BJeLR): 0.1176; AUC, modulator BJ.DPQ (BJeLR): −0.01087; AUC, modulator BJ.Gd3+ (BJeLR): 0.03013; AUC, modulator BJ.LNAME (BJeLR): 0.001053; AUC, modulator BJ.Lmin/NAD+ (BJeLR): 0.07102; AUC, modulator BJ.Lmin (BJeLR): 0.004844; AUC, modulator BJ.NAD+ (BJeLR): −0.0366; AUC, modulator BJ.NMMA (BJeLR): 0.01422; AUC, modulator BJ.Nec-1 (BJeLR): −0.02464; AUC, modulator BJ.Pepstatin (BJeLR): 0.01988; AUC, modulator BJ.TLCK (BJeLR): 0.03641
